Columns and labels:
[1] = tested on: CD15; experiment: Ex vivo flow cytometry priming assay, CD15 surface marker expression on AML patient samples; assay type: cell-based, human; conditions: FIG. 3, three-day incubation
[2] = tested on: PD-L1; experiment: Ex vivo flow cytometry priming-tuning assay, PD-L1 expression on AML patient samples; assay type: cell-based, human; conditions: FIG. 3, three-day incubation
[3] = tested on: CD38; experiment: Clinical validation by trial sites, CD38 expression on leukemic blasts of patients on drug; assay type: in vivo, human; conditions: before enrollment versus beginning of cycle two
Text: (§1) The ex vivo detection of CD38 upregulation using the 72-hour ex vivo assay was clinically validated by trial sites, which compared CD38 expression on leukemic blasts before enrollment and at the beginning of cycle two on SY-1425.

[4] = tested on: CD38; experiment: 72-hour ex vivo assay, CD38 upregulation in MDS and AML cancer patient samples; assay type: cell-based, human; conditions: subset of MDS and AML cancer patient samples
Text: as §1

[5] = tested on: CD24; experiment: Ex vivo flow cytometry priming assay, CD24 surface marker expression on AML patient samples; assay type: cell-based, human; conditions: AML Patient 3
Protocol: (§2) 12 primary AML patient samples were assayed for priming response using a High-Throughput Phenotypic Screening Platform. Samples were treated with 70 priming compounds (either FDA approved compounds or compounds in clinical development). […] This process was repeated on bone marrow aspirate and peripheral blood from 3 healthy donors.

[6] = tested on: CD126; experiment: Ex vivo flow cytometry priming assay, CD126 surface marker expression on AML patient samples; assay type: cell-based, human; conditions: AML Patient 3
Protocol: as §2

`Cc1c(-c2ccc(-c3ccccc3F)cc2)nc2ccc(F)cc2c1C(=O)O` [Brequinar Sodium] was tested, and the CD15 expression [1] was “increase” and the PD-L1 expression [2] was “increase”.
For `CC1(C)CCC(C)(C)c2cc(NC(=O)c3ccc(C(=O)O)cc3)ccc21` [SY-1425], the “CD38 expression on leukemic blasts” value [3] was “upregulated” and the “CD38 upregulation after exposure” value [4] was “upregulation”.
`CC1=C(/C=C/C(C)=C/C=C/C(C)=C/C(=O)O)C(C)(C)CCC1` [Tretinoin] was tested, and the “expression of CD24” value [5] was “little effect” and the “expression of CD126” value [6] was “little effect”.

From patent US20200046737A1, “METHODS FOR TREATING CANCER, AND COMPOSITIONS THEREFOR” (Notable Labs, Inc., priority 2018, published 2020)
